# Measurements as given in ChEMBL document CHEMBL1124317, “Rationale for the synthesis and preliminary biological evaluation of highly active new antitumor nitrosoureido sugars” (J Med Chem, 1989).
# How the values were obtained:
# [1] = Number of mice died/no of mice treated with 10 mg/kg of compound in aqueous solution intraperitoneally with L1210 leukemia; 1/10; format: functional; conditions: route intraperitoneal
# [2] = Mortality range of the mice with L1210 leukemia treated with 1.25 mg/kg of dose intraperitoneally with no of mice survived/no of mice treated; 0/8; format: functional; conditions: route intraperitoneal
# [3] = system: Mus musculus; experiment: The number of L1210 leukemia mice survived after 30 days with compound in aqueous solution injected by a dose of 5 mg/kg intraperitoneally; 7/10; format: functional; conditions: route intraperitoneal
# [4] = Mortality range of the mice with L1210 leukemia treated with 5 mg/kg of dose intraperitoneally with no of mice survived/no of mice treated; 0/8; format: functional; conditions: route intraperitoneal
# [5] = system: Mus musculus; experiment: Anti tumor activity l when treated to mice with L1210 leukemia with 5 mg/kg dose of compound intraperitoneally was expressed as percent of treated to control (T/C %); format: functional; conditions: route intraperitoneal
# [6] = system: Mus musculus; experiment: The number of L1210 leukemia mice survived after 60 days with compound in aqueous solution injected by a dose of 5 mg/kg intraperitoneally; 4/10; format: functional; conditions: route intraperitoneal
# [7] = system: Mus musculus; experiment: The number of L1210 leukemia mice survived after 30 days with compound injected by a dose of 2.5 mg/kg intraperitoneally; 0/8; format: functional; conditions: route intraperitoneal
# [8] = system: Mus musculus; experiment: Median survival time of the non surviving mice; treated with 5 mg/kg of compound to mice with L1210 leukemia; 43-54; format: functional
# [9] = system: Mus musculus; experiment: The number of L1210 leukemia mice survived after 60 days with compound in aqueous solution injected by a dose of 10 mg/kg intraperitoneally; 0/10; format: functional; conditions: route intraperitoneal
# [10] = system: Mus musculus; experiment: Median survival time of the non surviving mice; treated with 10 mg/kg of compound in olive oil to mice with L1210 leukemia; 15-25; format: functional
# [11] = Number of mice died/no of mice treated with 5 mg/kg of compound in aqueous solution intraperitoneally with L1210 leukemia; 0/10; format: functional; conditions: route intraperitoneal
# [12] = system: Mus musculus; experiment: The number of L1210 leukemia mice survived after 30 days with compound in aqueous solution injected by a dose of 10 mg/kg intraperitoneally; 0/10; format: functional; conditions: route intraperitoneal
# [13] = system: Mus musculus; experiment: Anti tumor activity l when treated to mice with L1210 leukemia with 2.5 mg/kg dose of compound intraperitoneally was expressed as percent of treated to control (T/C %); format: functional; conditions: route intraperitoneal
# [14] = system: Mus musculus; experiment: Anti tumor activity in olive oil when treated to mice with L1210 leukemia with 10 mg/kg dose of compound intraperitoneally was expressed as percent of treated to control (T/C %); format: functional; conditions: route intraperitoneal
# [15] = system: Mus musculus; experiment: Median survival time of the non surviving mice; treated with 1.25 mg/kg of compound to mice with L1210 leukemia; 11-15; format: functional
# [16] = system: Mus musculus; experiment: The number of L1210 leukemia mice survived after 30 days with compound injected by a dose of 1.25 mg/kg intraperitoneally; 0/8; format: functional; conditions: route intraperitoneal
# [17] = system: Mus musculus; experiment: Anti tumor activity l when treated to mice with L1210 leukemia with 0.625 mg/kg dose of compound intraperitoneally was expressed as percent of treated to control (T/C %); format: functional; conditions: route intraperitoneal
# [18] = system: Mus musculus; experiment: The number of L1210 leukemia mice survived after 30 days with compound injected by a dose of 0.625 mg/kg intraperitoneally; 0/8; format: functional; conditions: route intraperitoneal
# [19] = system: Mus musculus; experiment: Mortality range of the mice with L1210 leukemia treated with 2.5 mg/kg of dose intraperitoneally with no of mice survived/no of mice treated; 0/8; format: functional; conditions: route intraperitoneal
# [20] = system: Mus musculus; experiment: Anti tumor activity l when treated to mice with L1210 leukemia with 1.25 mg/kg dose of compound intraperitoneally was expressed as percent of treated to control (T/C %); format: functional; conditions: route intraperitoneal
# [21] = system: Mus musculus; experiment: Anti tumor activity in olive oil when treated to mice with L1210 leukemia with 5 mg/kg dose of compound intraperitoneally was expressed as percent of treated to control (T/C %); format: functional; conditions: route intraperitoneal
# [22] = system: Mus musculus; experiment: Median survival time of the non surviving mice; treated with 5 mg/kg of compound in olive oil to mice with L1210 leukemia; 23-49; format: functional
# [23] = system: Mus musculus; experiment: The number of L1210 leukemia mice survived after 30 days with compound injected by a dose of 5 mg/kg intraperitoneally; 8/8; format: functional; conditions: route intraperitoneal
# [24] = system: Mus musculus; experiment: Median survival time of the non surviving mice; treated with 2.5 mg/kg of compound to mice with L1210 leukemia; 17-25; format: functional
# [25] = Mortality range of the mice with L1210 leukemia treated with 0.625 mg/kg of dose intra peritoneally with no of mice survived/no of mice treated; 0/8; format: functional
# [26] = system: Mus musculus; experiment: The number of L1210 leukemia mice survived after 60 days with compound injected by a dose of 5 mg/kg intraperitoneally; 4/8; format: functional; conditions: route intraperitoneal
# [27] = system: Mus musculus; experiment: Median survival time of the non surviving mice; treated with 0.625 mg/kg of compound to mice with L1210 leukemia; 10-11; format: functional
# [28] = Ratio of mice died to that of mice treated with 20 mg/kg of compound in olive oil intraperitoneally with Lewis lung; 0/20; format: functional; conditions: route intraperitoneal
# [29] = system: Mus musculus; experiment: Median survival time of the non surviving mice; treated with 5 mg/kg of compound in olive oil to mice with B16 Melanocarcinoma; 13-51; format: functional
# [30] = system: Mus musculus; experiment: Anti tumor activity in olive oil when treated to mice with L1210 leukemia with 5 mg/kg dose of compound intraperitoneally was expressed as percent of treated to control; format: functional; conditions: route intraperitoneal
# [31] = system: Mus musculus; experiment: The number of L1210 leukemia mice survived after 60 days with compound in aqueous solution injected by a dose of 20 mg/kg intraperitoneally; 0/10; format: functional; conditions: route intraperitoneal
# [32] = system: Mus musculus; experiment: The number of L1210 leukemia mice survived after 30 days with compound in aqueous solution injected by a dose of 20 mg/kg intraperitoneally; 0/10; format: functional; conditions: route intraperitoneal
# [33] = system: Mus musculus; experiment: The number of L1210 Leukemia mice survived after 60 days with compound in olive oil injected by a dose of 20 mg/kg intraperitoneally; 15/15; format: functional; conditions: route intraperitoneal
# [34] = system: Mus musculus; experiment: The number of B16 melanocarcinoma mice survived after 60 days with compound in olive oil injected by a dose of 20 mg/kg intraperitoneally; 1/20; format: functional; conditions: route intraperitoneal
# [35] = Ratio of mice died to that of mice treated with 20 mg/kg of compound in olive oil intraperitoneally with L1210 leukemia tumor; 0/15; format: functional; conditions: route intraperitoneal
# [36] = system: Mus musculus; experiment: The number of B16 melanocarcinoma mice survived after 30 days with compound in olive oil injected by a dose of 20 mg/kg intraperitoneally; 14/20; format: functional; conditions: route intraperitoneal
# [37] = system: Mus musculus; experiment: The number of Lewis lung mice survived after 60 days with compound in olive oil injected by a dose of 20 mg/kg intraperitoneally; 15/20; format: functional; conditions: route intraperitoneal
# [38] = Ratio of mice died to that of mice treated with 20 mg/kg of compound in olive oil intraperitoneally with B16 Melanocarcinoma; 0/20; format: functional; conditions: route intraperitoneal
# [39] = system: Mus musculus; experiment: The number of L1210 Leukemia mice survived after 30 days with compound in olive oil injected by a dose of 20 mg/kg intraperitoneally; 15/15; format: functional; conditions: route intraperitoneal
# [40] = system: Mus musculus; experiment: Anti tumor activity in olive oil when treated to mice with B16 melanocarcinoma with 5 mg/kg dose of compound intraperitoneally was expressed as percent of treated to control (T/C %); format: functional; conditions: route intraperitoneal
# [41] = Ratio of mice died to that of mice treated with 20 mg/kg of compound in aqueous solution intraperitoneally with L1210 leukemia; 0/10; format: functional; conditions: route intraperitoneal
# [42] = system: Mus musculus; experiment: The number of Lewis lung mice survived after 30 days with compound in olive oil injected by a dose of 20 mg/kg intraperitoneally; 20/20; format: functional; conditions: route intraperitoneal
# [43] = system: Mus musculus; experiment: Median survival time of the non surviving mice; treated with 5 mg/kg of compound in olive oil to mice with L1210 leukemia and the value is mentioned in braces is range; format: functional
# [44] = system: Mus musculus; experiment: The number of L1210 leukemia mice survived after 30 days with compound in aqueous solution injected by a dose of 5 mg/kg intraperitoneally; 6/10; format: functional; conditions: route intraperitoneal
# [45] = species on record: Mus musculus; experiment: Median survival time of the non surviving mice; there are single deaths on day 20, day 21, day 22, and day 25; four deaths occurred; format: functional, organism-based
# [46] = system: Mus musculus; experiment: The number of L1210 leukemia mice survived after 60 days with compound in aqueous solution injected by a dose of 5 mg/kg intraperitoneally; 6/10; format: functional; conditions: route intraperitoneal
smiles,measurement,setting,value
CO[C@H]1C[C@@H](NC(=O)N(CCCl)N=O)[C@H](O)[C@@H](C)O1,Ratio,[1],1
same,Ratio,[2],0
same,Survivals,[3],7
same,Ratio,[4],0
same,T/C,[5],539%
same,Survivals,[6],4
same,Survivals,[7],0
same,Median survival time,[8],48.5
same,Survivals,[9],0
same,Median survival time,[10],18.75
same,Ratio,[11],0
same,Survivals,[12],0
same,T/C,[13],244%
same,T/C,[14],198%
same,Median survival time,[15],12.9
same,Survivals,[16],0
same,T/C,[17],118%
same,Survivals,[18],0
same,Mortality ratio,[19],0
same,T/C,[20],144%
same,T/C,[21],519%
same,Median survival time,[22],49
same,Survivals,[23],8
same,Median survival time,[24],21.9
same,Ratio,[25],0
same,Survivals,[26],4
same,Median survival time,[27],10.6
CO[C@@H]1C[C@@H](NC(=O)N(CCCl)N=O)[C@H](O)[C@@H](C)O1,Ratio,[28],0
same,Median survival time,[29],36.25
same,T/C,[30],150%
same,Survivals,[31],0
same,Survivals,[32],0
same,Survivals,[33],15
same,Survivals,[34],1
same,Ratio,[35],0
same,Survivals,[36],14
same,Survivals,[37],15
same,Ratio,[38],0
same,Survivals,[39],15
same,T/C,[40],260%
same,Ratio,[41],0
same,Survivals,[42],20
same,Median survival time,[43],14.2
CO[C@H]1C[C@@H](NC(=O)N(CCCl)N=O)[C@H](O)[C@@H](CO)O1,Survivals,[44],6
same,Number of deaths,[45],4
same,Ratio,[11],0
same,Survivals,[46],6
